Target: E3 ubiquitin-protein ligase Mdm2 (Homo sapiens, UniProt Q00987)
Experiment: Fluorescence Polarization (FP) Binding Assay
Settings: pH 7.4; 23 °C
Experimental: Ki values were determined from a competition experiment in which serial dilutions of inhibitor were added to compete against a fixed concentration (1 or 10 nM) of the fluorescent ligand for binding to a fixed concentration of the protein. Ki value was determined by nonlinear regression fitting of the competition curve using a set of custom equations and an Excel curve fitting tool.

E3 ubiquitin-protein ligase Mdm2, sequence (Q00987 whole entry): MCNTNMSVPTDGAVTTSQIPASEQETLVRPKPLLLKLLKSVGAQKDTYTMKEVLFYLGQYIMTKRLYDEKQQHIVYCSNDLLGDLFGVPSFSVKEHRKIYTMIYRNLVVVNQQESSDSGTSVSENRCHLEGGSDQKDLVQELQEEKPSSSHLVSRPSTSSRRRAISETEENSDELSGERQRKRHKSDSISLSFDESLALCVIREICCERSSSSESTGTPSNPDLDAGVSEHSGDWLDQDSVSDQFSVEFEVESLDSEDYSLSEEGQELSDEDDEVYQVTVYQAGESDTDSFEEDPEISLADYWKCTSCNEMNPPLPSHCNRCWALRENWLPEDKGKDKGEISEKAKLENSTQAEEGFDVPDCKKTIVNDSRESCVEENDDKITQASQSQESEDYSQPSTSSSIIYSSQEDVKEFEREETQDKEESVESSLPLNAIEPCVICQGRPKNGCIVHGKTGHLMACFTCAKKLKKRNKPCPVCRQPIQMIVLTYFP

Compound	Ki [nM]
Cc1ccc2[nH]cc(C[C@H](NC(=O)c3ccccc3Oc3ccccc3)C(=O)O)c2c1 [2-phenoxybenzoyltryptophan derivative, R5C1]	10000
Cc1ccc2c(c1)c(C[C@H](NC(=O)c1ccccc1Oc1ccccc1)C(=O)O)cn2C(=O)CCC1CCCC1 [2-phenoxybenzoyltryptophan derivative, R5C2]	200
O=C(N[C@@H](Cc1cn(C(=O)CCC2CCCC2)c2cc(Cl)ccc12)C(=O)O)c1ccccc1Oc1ccccc1 [2-phenoxybenzoyltryptophan derivative, R2C2]	800
O=C(N[C@@H](Cc1cn(C(=O)CCC2CCCC2)c2cc(Br)ccc12)C(=O)O)c1ccccc1Oc1ccccc1 [2-phenoxybenzoyltryptophan derivative, R1C2]	800
O=C(N[C@@H](Cc1cn(C(=O)CCC2CCCC2)c2cc(F)ccc12)C(=O)O)c1ccccc1Oc1ccccc1 [2-phenoxybenzoyltryptophan derivative, R3C2]	400
O=C(N[C@@H](Cc1c[nH]c2cc(F)ccc12)C(=O)O)c1ccccc1Oc1ccccc1 [2-phenoxybenzoyltryptophan derivative, R3C1]	20000
N#Cc1ccc2[nH]cc(C[C@H](NC(=O)c3ccccc3Oc3ccccc3)C(=O)O)c2c1 [2-phenoxybenzoyltryptophan derivative, R4C1]	10000
O=C(N[C@@H](Cc1c[nH]c2cc(Br)ccc12)C(=O)O)c1ccccc1Oc1ccccc1 [2-phenoxybenzoyltryptophan derivative, R1C1]	3000
O=C(N[C@@H](Cc1c[nH]c2cc(Cl)ccc12)C(=O)O)c1ccccc1Oc1ccccc1 [2-phenoxybenzoyltryptophan derivative, R2C1]	6000
N#Cc1ccc2c(c1)c(C[C@H](NC(=O)c1ccccc1Oc1ccccc1)C(=O)O)cn2C(=O)CCC1CCCC1 [2-phenoxybenzoyltryptophan derivative, R4C2]	600

More lines, now with the values ahead:

Ki [nM]	Compound
500	O=C(N[C@@H](Cc1cn(C(=O)OCc2ccccc2)c2cc(Br)ccc12)C(=O)O)c1ccccc1Oc1ccccc1 [2-phenoxybenzoyltryptophan derivative, R1C3]
600	N#Cc1ccc2c(c1)c(C[C@H](NC(=O)c1ccccc1Oc1ccccc1)C(=O)O)cn2C(=O)OCc1ccccc1 [2-phenoxybenzoyltryptophan derivative, R4C3]
800	O=C(N[C@@H](Cc1cn(C(=O)OCc2ccccc2)c2cc(F)ccc12)C(=O)O)c1ccccc1Oc1ccccc1 [2-phenoxybenzoyltryptophan derivative, R3C3]
600	O=C(N[C@@H](Cc1cn(C(=O)OCc2ccccc2)c2cc(Cl)ccc12)C(=O)O)c1ccccc1Oc1ccccc1 [2-phenoxybenzoyltryptophan derivative, R2C3]
1000	N#Cc1ccc2c(c1)c(C[C@H](NC(=O)c1ccccc1Oc1ccccc1)C(=O)O)cn2Cc1ccc(OCc2ccccc2)cc1 [2-phenoxybenzoyltryptophan derivative, R4C4]
2000	O=C(N[C@@H](Cc1cn(Cc2ccc(OCc3ccccc3)cc2)c2cc(F)ccc12)C(=O)O)c1ccccc1Oc1ccccc1 [2-phenoxybenzoyltryptophan derivative, R3C4]
100	Cc1ccc2c(c1)c(C[C@H](NC(=O)c1ccccc1Oc1ccccc1)C(=O)O)cn2C(=O)OCc1ccccc1 [2-phenoxybenzoyltryptophan derivative, R5C3]
600	O=C(N[C@@H](Cc1cn(Cc2ccc(OCc3ccccc3)cc2)c2cc(Br)ccc12)C(=O)O)c1ccccc1Oc1ccccc1 [2-phenoxybenzoyltryptophan derivative, R1C4]
600	Cc1ccc2c(c1)c(C[C@H](NC(=O)c1ccccc1Oc1ccccc1)C(=O)O)cn2Cc1ccc(OCc2ccccc2)cc1 [2-phenoxybenzoyltryptophan derivative, R5C4]
1000	O=C(N[C@@H](Cc1cn(Cc2ccc(OCc3ccccc3)cc2)c2cc(Cl)ccc12)C(=O)O)c1ccccc1Oc1ccccc1 [2-phenoxybenzoyltryptophan derivative, R2C4]

Source: BindingDB's records for doi:10.1016/j.ab.2004.03.009 (Schering-Plough Research Institute, 2004)
